We go through 16 compounds from ChEMBL document CHEMBL6115009.

The structures appear in SMILES notation. The source made the active and inactive calls. No cut-off for these calls is given here.

The target in assay [1] is T1, 5-hydroxytryptamine receptor 1A (Homo sapiens) (UniProt P08908).
T1 sequence (whole entry): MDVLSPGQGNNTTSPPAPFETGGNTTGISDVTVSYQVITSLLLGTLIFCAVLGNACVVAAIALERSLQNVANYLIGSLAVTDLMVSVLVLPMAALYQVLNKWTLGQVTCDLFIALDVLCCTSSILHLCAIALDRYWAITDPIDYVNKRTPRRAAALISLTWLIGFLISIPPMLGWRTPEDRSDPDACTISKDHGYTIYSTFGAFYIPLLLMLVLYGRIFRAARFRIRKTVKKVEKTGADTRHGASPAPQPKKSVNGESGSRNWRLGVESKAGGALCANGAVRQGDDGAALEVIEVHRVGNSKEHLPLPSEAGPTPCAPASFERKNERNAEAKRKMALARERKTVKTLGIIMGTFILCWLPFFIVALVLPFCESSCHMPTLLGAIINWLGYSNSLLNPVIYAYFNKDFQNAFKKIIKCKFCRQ
As to the kind of experiment: Displacement of [3H]8-OH-DPAT from recombinant human 5-HT1A receptor expressed in CHO-K1 cells at 0.3 to 3 uM incubated for 1 hr. The class given is cell-based. The settings on record: dose 0.3-3 µM.

For assay [2], the target named is Glutamate NMDA receptor (Rattus norvegicus) (UniProt P35439+Q00959+Q00960+Q00961+Q62645+Q8VHN2+Q9R1M7). Put plainly: Displacement of [3H]TCP from Wistar rat cerebral cortex NMDAR at 10 uM incubated for 1.5 hrs. The class given is tissue-based. For orientation: In a radioligand displacement assay an active substance lowers the binding of a labelled ligand.
The target of assay [3] is Glutamate NMDA receptor; GRIN1/GRIN2B (Homo sapiens) (UniProt Q05586+Q13224). As to the kind of experiment: Antagonist activity at GluN1/GluN2B receptor (unknown origin) overexpressed in CHO cells assessed as inhibition of Ca2+ flux incubated for 24 hrs in presence of glycine/L-glutamate by FLIPR assay. The class given is cell-based.
Assay [4] concerns the target Glutamate NMDA receptor; GRIN1/GRIN2A (Homo sapiens) (UniProt Q05586+Q12879). As to the kind of experiment: Antagonist activity at GluN1/GluN2A receptor (unknown origin) overexpressed in CHO cells assessed as inhibition of Ca2+ flux incubated for 24 hrs in presence of glycine/L-glutamate by FLIPR assay. It counts as cell-based. A general note: A change in cytosolic calcium serves as a functional read-out for many receptors and channels.

Assay [5] addresses Ionotropic glutamate receptor NMDA 1/2D (Homo sapiens) (UniProt Q05586+O15399). Put plainly: Antagonist activity at GluN1/GluN2D receptor (unknown origin) overexpressed in CHO cells assessed as inhibition of Ca2+ flux incubated for 24 hrs in presence of glycine/L-glutamate by FLIPR assay. The class given is cell-based.
The target of assay [6] is Ionotropic glutamate receptor NMDA 1/2C (Homo sapiens) (UniProt Q05586+Q14957). As to the kind of experiment: Antagonist activity at GluN1/GluN2C receptor (unknown origin) overexpressed in CHO cells assessed as inhibition of Ca2+ flux incubated for 24 hrs in presence of glycine/L-glutamate by FLIPR assay. The class given is cell-based.
For assay [7], the target named is Sodium-dependent serotonin transporter (Homo sapiens) (UniProt P31645). Put plainly: Displacement of [3H]paroxetine from recombinant human SERT expressed in HEK293 cells at 10 uM incubated for 1 hr. The class given is cell-based.
Sequence of Sodium-dependent serotonin transporter (Homo sapiens) (P31645 whole entry, looked up): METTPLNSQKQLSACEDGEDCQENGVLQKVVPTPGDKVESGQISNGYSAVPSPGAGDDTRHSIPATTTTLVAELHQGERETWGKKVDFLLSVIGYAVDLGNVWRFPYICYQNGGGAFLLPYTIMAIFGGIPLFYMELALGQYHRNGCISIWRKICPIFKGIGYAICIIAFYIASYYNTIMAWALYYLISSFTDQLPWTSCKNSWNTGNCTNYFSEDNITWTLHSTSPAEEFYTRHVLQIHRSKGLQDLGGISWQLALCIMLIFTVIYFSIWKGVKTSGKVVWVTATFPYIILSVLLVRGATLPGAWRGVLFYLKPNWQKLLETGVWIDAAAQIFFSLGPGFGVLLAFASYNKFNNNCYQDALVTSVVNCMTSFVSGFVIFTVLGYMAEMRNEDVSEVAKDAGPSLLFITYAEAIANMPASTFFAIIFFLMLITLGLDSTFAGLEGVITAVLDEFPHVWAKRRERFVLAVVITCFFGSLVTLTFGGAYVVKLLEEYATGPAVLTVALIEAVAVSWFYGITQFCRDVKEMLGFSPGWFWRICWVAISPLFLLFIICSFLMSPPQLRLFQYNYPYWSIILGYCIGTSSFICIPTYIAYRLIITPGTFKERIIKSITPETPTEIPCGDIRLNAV
Assay [8] can be described thus: Selectivity index, ratio of displacement of [3H]TCP from Wistar rat cerebral cortex NMDAR to displacement of [3H]diprenorphine from recombinant human mu opioid receptor expressed in CHO-K1 cells. The class given is cell-based.
For assay [9], the target named is Sigma non-opioid intracellular receptor 1 (Homo sapiens) (UniProt Q99720). As to the kind of experiment: Displacement of [3H]pentazocine from sigma 1 receptor in human Jurkat cells at 0.3 to 3 uM incubated for 2 hrs. The settings on record: dose 0.3-3 µM. It counts as cell-based.
Sequence of Sigma non-opioid intracellular receptor 1 (Homo sapiens) (Q99720 whole entry): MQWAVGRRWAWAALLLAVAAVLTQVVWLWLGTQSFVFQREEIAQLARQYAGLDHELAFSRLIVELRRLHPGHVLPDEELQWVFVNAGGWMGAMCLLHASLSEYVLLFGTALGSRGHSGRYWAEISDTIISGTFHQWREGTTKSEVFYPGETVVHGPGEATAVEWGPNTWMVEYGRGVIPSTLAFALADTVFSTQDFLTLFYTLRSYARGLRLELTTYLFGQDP
Assay [10] addresses Histamine H1 receptor (Homo sapiens) (UniProt P35367). As to the kind of experiment: Displacement of [3H]pyrilamine from recombinant human histamine H1 receptor expressed in CHO-K1 cells at 10 to 30 uM incubated for 3 hrs. The class given is cell-based. The settings on record: dose 10-30 µM.
In assay [11] the target is Sodium-dependent serotonin transporter (Homo sapiens) (UniProt P31645). Put plainly: Displacement of [3H]paroxetine from recombinant human SERT expressed in HEK293 cells at 1 to 10 uM incubated for 1 hr. The class given is cell-based. The settings on record: dose 1-10 µM.

Sequence of Histamine H1 receptor (Homo sapiens) (P35367 whole entry): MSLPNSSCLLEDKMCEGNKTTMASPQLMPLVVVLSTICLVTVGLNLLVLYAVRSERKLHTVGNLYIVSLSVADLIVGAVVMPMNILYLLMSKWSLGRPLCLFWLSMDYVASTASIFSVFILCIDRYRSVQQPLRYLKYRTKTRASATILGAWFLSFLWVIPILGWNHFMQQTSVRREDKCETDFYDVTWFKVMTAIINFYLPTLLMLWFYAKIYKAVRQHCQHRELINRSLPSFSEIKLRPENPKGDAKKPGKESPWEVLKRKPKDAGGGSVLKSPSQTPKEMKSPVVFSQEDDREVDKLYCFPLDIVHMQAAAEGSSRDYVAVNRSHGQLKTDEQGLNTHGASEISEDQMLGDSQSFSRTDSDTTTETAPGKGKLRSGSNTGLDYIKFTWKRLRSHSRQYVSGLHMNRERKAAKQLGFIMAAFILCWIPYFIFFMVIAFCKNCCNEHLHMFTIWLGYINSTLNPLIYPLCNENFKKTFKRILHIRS

With `CCC1=N[C@H](C)CC1(c1ccccc1)c1ccccc1`, the result in assay [1] and in [2] was inactive.
For `C[C@H]1CC(c2ccccc2)(c2ccccc2)C(=O)N1C`, the inhibition entry in assay [3], in assay [4], in assay [5] and in [6] was “inactive” throughout.
For `C[C@@H]1CC(c2ccccc2)(c2ccccc2)C(=O)N1C`, the inhibition entry in assay [3], in assay [4], in [5] and in [6] was “inactive” each time.
In the case of `CC[C@@H](O)C(C[C@@H](C)NC)(c1ccccc1)c1ccccc1`, the outcome in assay [1] was inactive. Besides, the result in [7] and in assay [2] (filed as antagonist) was Active. For the same compound, the Ratio pKi in assay [8] worked out at 0.83.
Turning to `CC[C@H](O)C(C[C@H](C)NC)(c1ccccc1)c1ccccc1`, the result in [1] was inactive. Moreover, the outcome in assay [9] was Active. In addition, the Activity result in assay [10] is reported as “Active; Compound Displayed Significant Activity Like (S)-Methadone”; in [2] (filed as antagonist), “Active; Compound Activity Comparable To (S)-Methadone”.
Consider `CC[C@H](O)C(C[C@@H](C)N(C)C)(c1ccccc1)c1ccccc1`, for which, in assay [3], the inhibition result was “inactive”.
In the case of `C[C@@H](CC(C(=O)O)(c1ccccc1)c1ccccc1)N(C)C`, the inhibition result in [3], in [4], in [5] and in [6] was “inactive” in each case.
As to `CC[C@H](O)C(C[C@H](C)N)(c1ccccc1)c1ccccc1`, the result in assay [1] was inactive. The outcome in [11] and in assay [2] (filed as antagonist) was Active.
Regarding `CCC(=O)C(C[C@H](C)N(C)C)(c1ccccc1)c1ccccc1`, the outcome in [1] and in assay [2] (filed as antagonist) was Active.
In the case of `CC[C@@H](O)C(C[C@H](C)N(C)C)(c1ccccc1)c1ccccc1`, the inhibition entry in assay [3], in [5] and in assay [6] was “inactive” each time.
As for `C[C@H](CC(C(=O)O)(c1ccccc1)c1ccccc1)N(C)C`, the inhibition result in assay [3], in assay [4], in assay [5] and in assay [6] was “inactive” each time.
As to `CC[C@H](O)C(C[C@@H](C)NC)(c1ccccc1)c1ccccc1`, the outcome in assay [1] was inactive. Moreover, the result in [7] and in assay [2] (filed as antagonist) was Active. Further, in [8], the Ratio pKi came out at 0.98.
For the compound `CC[C@H](O)C(C[C@@H](C)N)(c1ccccc1)c1ccccc1`, the result in assay [1] was inactive. Also, in [2] (filed as antagonist), the outcome was Active.
In the case of `CCC1=[N+](C)[C@@H](C)CC1(c1ccccc1)c1ccccc1`, the inhibition entry in [3], in assay [4], in [5] and in [6] was “inactive” each time.
In the case of `CC[C@@H](O)C(C[C@H](C)N)(c1ccccc1)c1ccccc1`, in [1], the result was inactive. For the same compound, the outcome in [11] was Active. In addition, in assay [2] (filed as antagonist), the Activity result is “Active; Compound Activity Comparable To (S)-Methadone”.
`CCC1=[N+](C)[C@H](C)CC1(c1ccccc1)c1ccccc1`: the inhibition entry in assay [3] and in assay [4] was “inactive” in each case.
